Test results published in ChEMBL document CHEMBL1138121 (Bioorg Med Chem Lett, 2006).

What follows are molecules tested against T1, Glycogen phosphorylase, muscle form (Oryctolagus cuniculus, UniProt P00489) (assay: Inhibitory activity against rabbit muscle GPa).
T1 sequence (P00489 whole entry): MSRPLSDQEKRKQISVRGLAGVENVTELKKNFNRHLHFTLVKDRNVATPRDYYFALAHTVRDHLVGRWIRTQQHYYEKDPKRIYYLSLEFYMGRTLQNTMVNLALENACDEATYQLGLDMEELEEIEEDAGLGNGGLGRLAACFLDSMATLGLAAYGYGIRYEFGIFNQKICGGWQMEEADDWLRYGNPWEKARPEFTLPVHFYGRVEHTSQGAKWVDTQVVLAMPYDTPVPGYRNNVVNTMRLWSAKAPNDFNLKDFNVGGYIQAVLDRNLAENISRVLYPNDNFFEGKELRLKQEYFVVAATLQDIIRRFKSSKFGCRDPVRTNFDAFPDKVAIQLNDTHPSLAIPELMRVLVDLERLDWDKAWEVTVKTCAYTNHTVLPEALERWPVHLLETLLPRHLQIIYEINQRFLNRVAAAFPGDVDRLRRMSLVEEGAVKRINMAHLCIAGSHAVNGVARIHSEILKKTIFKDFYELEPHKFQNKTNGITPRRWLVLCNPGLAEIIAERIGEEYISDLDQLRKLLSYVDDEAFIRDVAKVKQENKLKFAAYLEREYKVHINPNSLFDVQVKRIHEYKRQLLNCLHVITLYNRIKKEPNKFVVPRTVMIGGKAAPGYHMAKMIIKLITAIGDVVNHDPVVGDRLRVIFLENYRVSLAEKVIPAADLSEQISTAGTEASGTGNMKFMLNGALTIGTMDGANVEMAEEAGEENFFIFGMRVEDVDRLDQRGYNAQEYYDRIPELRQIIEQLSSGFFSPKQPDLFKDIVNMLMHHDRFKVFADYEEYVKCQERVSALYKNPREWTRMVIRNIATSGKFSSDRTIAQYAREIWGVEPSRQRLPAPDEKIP
Assay type: tissue-based, Muscle tissue

IC50 | SMILES
580 µM | CC1(C)CC[C@]2(C(=O)OCCCCN3CCCCC3)CC[C@]3(C)C(=CC[C@@H]4[C@@]5(C)C[C@@H](O)[C@H](O)C(C)(C)[C@@H]5CC[C@]43C)[C@@H]2C1
63 µM | CC(=O)O[C@@H]1C[C@]2(C)[C@H]3CC=C4[C@@H]5CC(C)(C)CC[C@]5(C(=O)OCc5ccccc5)CC[C@@]4(C)[C@]3(C)CC[C@H]2C(C)(C)[C@@H]1O
153 µM | CC1(C)CC[C@]2(C(=O)OCCO)CC[C@]3(C)C(=CC[C@@H]4[C@@]5(C)C[C@@H](O)[C@H](O)C(C)(C)[C@@H]5CC[C@]43C)[C@@H]2C1
7 µM | CC1(C)CC[C@]2(C(=O)OCCCCBr)CC[C@]3(C)C(=CC[C@@H]4[C@@]5(C)C[C@@H](O)[C@H](O)C(C)(C)[C@@H]5CC[C@]43C)[C@@H]2C1
62 µM | CCN(CC)CCCCOC(=O)[C@]12CCC(C)(C)C[C@H]1C1=CC[C@@H]3[C@@]4(C)C[C@@H](O)[C@H](O)C(C)(C)[C@@H]4CC[C@@]3(C)[C@]1(C)CC2
393 µM | COC(=O)[C@]12CCC(C)(C)C[C@H]1C1=CC[C@@H]3[C@@]4(C)C[C@@H](O)[C@H](O)C(C)(C)[C@@H]4CC[C@@]3(C)[C@]1(C)CC2 [MASLINIC ACID METHYL ESTER]
66 µM | CC1(C)CC[C@]2(C(=O)OCn3cccn3)CC[C@]3(C)C(=CC[C@@H]4[C@@]5(C)C[C@@H](O)[C@H](O)C(C)(C)[C@@H]5CC[C@]43C)[C@@H]2C1
121 µM | CC1(C)CC[C@]2(C(=O)OCCCCN3CCOCC3)CC[C@]3(C)C(=CC[C@@H]4[C@@]5(C)C[C@@H](O)[C@H](O)C(C)(C)[C@@H]5CC[C@]43C)[C@@H]2C1
80 µM | CC(=O)O[C@@H]1C[C@]2(C)[C@H]3CC=C4[C@@H]5CC(C)(C)CC[C@]5(C(=O)OCc5ccccc5)CC[C@@]4(C)[C@]3(C)CC[C@H]2C(C)(C)[C@H]1O
66 µM | CC1(C)CC[C@]2(C(=O)OCc3ccccc3)CC[C@]3(C)C(=CC[C@@H]4[C@@]5(C)C[C@@H](O)[C@@H](O)C(C)(C)[C@@H]5CC[C@]43C)[C@@H]2C1
580 µM | CC1(C)CC[C@]2(C(=O)OCc3ccccc3)CC[C@]3(C)C(=CC[C@@H]4[C@@]5(C)C[C@@H](O[Si](C)(C)C(C)(C)C)[C@@H](O)C(C)(C)[C@@H]5CC[C@]43C)[C@@H]2C1
31 µM | CC1(C)CC[C@]2(C(=O)OCCN3CCCCC3)CC[C@]3(C)C(=CC[C@@H]4[C@@]5(C)C[C@@H](O)[C@H](O)C(C)(C)[C@@H]5CC[C@]43C)[C@@H]2C1
30 µM | CC1(C)CC[C@]2(C(=O)OCc3ccccc3)CC[C@]3(C)C(=CC[C@@H]4[C@@]5(C)C=C(O)C(=O)C(C)(C)[C@@H]5CC[C@]43C)[C@@H]2C1
19 µM | CCOC(=O)COC(=O)[C@]12CCC(C)(C)C[C@H]1C1=CC[C@@H]3[C@@]4(C)C[C@@H](O)[C@H](O)C(C)(C)[C@@H]4CC[C@@]3(C)[C@]1(C)CC2
51 µM | CCN(CC)CCOC(=O)[C@]12CCC(C)(C)C[C@H]1C1=CC[C@@H]3[C@@]4(C)C[C@@H](O)[C@H](O)C(C)(C)[C@@H]4CC[C@@]3(C)[C@]1(C)CC2
29 µM | CC(=O)O[C@@H]1C[C@]2(C)[C@H]3CC=C4[C@@H]5CC(C)(C)CC[C@]5(C(=O)OCc5ccccc5)CC[C@@]4(C)[C@]3(C)CC[C@H]2C(C)(C)C1=O
1710 µM | CC1(C)CC[C@]2(C(=O)OCc3ccccc3)CC[C@]3(C)C(=CC[C@@H]4[C@@]5(C)C[C@@H](O[Si](C)(C)C(C)(C)C)[C@H](O)C(C)(C)[C@@H]5CC[C@]43C)[C@@H]2C1
1650 µM | CC1(C)CC[C@]2(C(=O)OCC(=O)O)CC[C@]3(C)C(=CC[C@@H]4[C@@]5(C)C[C@@H](O)[C@H](O)C(C)(C)[C@@H]5CC[C@]43C)[C@@H]2C1
43 µM | CC1(C)CC[C@]2(C(=O)OCCN3CCOCC3)CC[C@]3(C)C(=CC[C@@H]4[C@@]5(C)C[C@@H](O)[C@H](O)C(C)(C)[C@@H]5CC[C@]43C)[C@@H]2C1
29 µM | CC1(C)CC[C@]2(C(=O)OCc3ccccc3)CC[C@]3(C)C(=CC[C@@H]4[C@@]5(C)C[C@@H](O)C(=O)C(C)(C)[C@@H]5CC[C@]43C)[C@@H]2C1
50 µM | CC1(C)CC[C@]2(C(=O)OCCBr)CC[C@]3(C)C(=CC[C@@H]4[C@@]5(C)C[C@@H](O)[C@H](O)C(C)(C)[C@@H]5CC[C@]43C)[C@@H]2C1
